Experimental data published in ChEMBL document CHEMBL5335803, “Potential of several triazene derivatives against DENGUE viruses” (Bioorg Med Chem Lett, 2024).

Tests used:
Dengue virus [1] = assay: Antiviral activity against DENV infected in human Huh-7 cells assessed as reduction in viral growth incubated for 72 hrs by flow cytometry; type: functional, organism-based; conditions: Huh-7, 72 h
[2] = Cytotoxicity against human Huh-7 cells infected with DENV assessed as reduction in cell viability by microplate spectrophotometry; type: toxicity, cell-based
Dengue virus [3] = assay: Antiviral activity against DENV infected in human Huh-7 cells assessed as percent of infected cells at 50 uM incubated for 72 hrs by flow cytometry relative to control; type: functional
[4] = Selectivity index, ratio of CC50 for human Huh-7 cells to EC50 for DENV infected in Huh-7 cells; type: toxicity, cell-based; conditions: read-out: Selectivity Index
Dengue virus [5] = assay: Antiviral activity against DENV infected in human Huh-7 cells assessed as percent of infected cells at 12.5 uM incubated for 72 hrs by flow cytometry relative to control; type: functional

| SMILES | EC50 (Dengue virus [1]) [µM] | CC50 [2] [µM] | Activity (Dengue virus [3]) | selectivity ratio [4] | Activity (Dengue virus [5]) [%] |
| --- | --- | --- | --- | --- | --- |
| Brc1cccc(/N=N/Nc2ccccn2)c1 | 8.45 | 27.4 | <=20% |  |  |
| FC(F)(F)c1ccc(/N=N/Nc2ccncc2)cc1 |  | 11.9 |  |  |  |
| COc1ccc(/N=N/Nc2ccncc2)cc1 | 48.1 | 28.5 | 22% |  |  |
| CCN(CC)/N=N/c1ccc(OC)cc1 | > 50 | 24.4 | 22% |  |  |
| COc1ccc(/N=N/n2ccnc2)cc1 | 32.4 | 72 | 22% | 2.22 |  |
| FC(F)(F)c1ccc(/N=N/n2ccnc2)cc1 | 7.82 | > 100 | <=20% | > 12.8 | 0 |
| c1ccc(/N=N/Nc2ccccn2)cc1 | 10.6 | 22.1 | <=20% |  |  |
| CN(/N=N/c1cccnc1)c1ccccc1 | 11.7 | 20.6 |  |  |  |
| c1cncc(/N=N/N2CCCc3ccccc32)c1 | 7.92 | 7.09 | 22% |  |  |
| COc1ccc(/N=N/Nc2ncccc2C)cc1 | 11.5 | > 100 | 22% |  |  |
| Brc1ccc(/N=N/Nc2ccccn2)cc1 | 8.08 | 75.6 | <=20% | 9.36 |  |
| COc1ccc(/N=N/Nc2ccccn2)cc1 | < 1.56 | 15.5 | <=20% |  |  |
| O[C@H]1[C@H]2c3cc4c(cc3CN3CCC(=C[C@@H]1O)[C@H]23)OCO4 [LYCORINE] | 1.7 |  |  |  |  |
| NC(=O)c1ncn([C@@H]2O[C@H](CO)[C@@H](O)[C@H]2O)n1 [RIBAVIRIN] | 40.8 |  |  |  |  |
